From patent publication US20160009693A1, “HERBICIDAL COMPOUNDS” (SYNGENTA LIMITED, priority 2013, published 2016)

Legend:
Type in all cases: in vivo
Details in all cases: applied at 1000 g/h, evaluated after 13 days
[1] = tested on: Alopecurus myosuroides (ALOMY); assay: Herbicidal glasshouse test, post-emergence, ALOMY
Protocol: (§1) Seeds of a variety of test species are sown in standard soil in pots (Alopecurus myosuroides (ALOMY), Setaria faberi (SETFA), Echinochloa crus-galli (ECHCG), Solanum nigrum (SOLNI), Amaranthus retoflexus (AMARE), Ipomoea hederacea (IPOHE)). After cultivation for one day (pre-emergence) or after 8 days cultivation (post-emergence) under controlled conditions in a glasshouse (at 24/16° C., day/night; 14 hours light; 65% humidity), the plants are sprayed with an aqueous spray solution derived from the formulation of the technical active ingredient in acetone / water (50:50) solution containing 0.5% Tween 20 (polyoxyethelyene sorbitan monolaurate, CAS RN 9005-64-5). […] The test plants are then grown in a glasshouse under controlled conditions in a glasshouse (at 24/16° C., day/night; 14 hours light; 65% humidity) and watered twice daily. After 13 days for pre and post-emergence, the test is evaluated for the percentage damage caused to the plant. The biological activities are shown in the following table on a five point scale (5=80-100%; 4=60-79%; 3=40-59%; 2=20-39%; 1=0-19%).

Setaria faberi (SETFA) [2] = assay: Herbicidal glasshouse test, pre-emergence, SETFA
Protocol: as §1

[3] = tested on: Ipomoea hederacea (IPOHE); assay: Herbicidal glasshouse test, pre-emergence, IPOHE
Protocol: as §1

[4] = tested on: Ipomoea hederacea (IPOHE); assay: Herbicidal glasshouse test, post-emergence, IPOHE
Protocol: as §1

[5] = tested on: Echinochloa crus-galli (ECHCG); assay: Herbicidal glasshouse test, pre-emergence, ECHCG
Protocol: as §1

Solanum nigrum (SOLNI) [6] = assay: Herbicidal glasshouse test, post-emergence, SOLNI
Protocol: as §1

[7] = tested on: Amaranthus retoflexus (AMARE); assay: Herbicidal glasshouse test, post-emergence, AMARE
Protocol: as §1

Setaria faberi (SETFA) [8] = assay: Herbicidal glasshouse test, post-emergence, SETFA
Protocol: as §1

Solanum nigrum (SOLNI) [9] = assay: Herbicidal glasshouse test, pre-emergence, SOLNI
Protocol: as §1

[10] = tested on: Alopecurus myosuroides (ALOMY); assay: Herbicidal glasshouse test, pre-emergence, ALOMY
Protocol: as §1

[11] = tested on: Echinochloa crus-galli (ECHCG); assay: Herbicidal glasshouse test, post-emergence, ECHCG
Protocol: as §1

[12] = tested on: Amaranthus retoflexus (AMARE); assay: Herbicidal glasshouse test, pre-emergence, AMARE
Protocol: as §1

C=CCn1nc(C(=O)Nc2nnnn2C)c(=O)n(-c2ccc(F)cc2)c1=O [Compound 1.011]
5 (5=80-100%): POST Application ALOMY, percentage damage (five point scale) [1] | PRE Application IPOHE, percentage damage (five point scale) [3] | POST Application IPOHE, percentage damage (five point scale) [4] | PRE Application ECHCG, percentage damage (five point scale) [5] | POST Application SOLNI, percentage damage (five point scale) (Solanum nigrum (SOLNI) [6]) | POST Application AMARE, percentage damage (five point scale) [7] | POST Application SETFA, percentage damage (five point scale) (Setaria faberi (SETFA) [8]) | PRE Application SOLNI, percentage damage (five point scale) (Solanum nigrum (SOLNI) [9]) | POST Application ECHCG, percentage damage (five point scale) [11] | PRE Application AMARE, percentage damage (five point scale) [12]
4 (4=60-79%): PRE Application SETFA, percentage damage (five point scale) (Setaria faberi (SETFA) [2]) | PRE Application ALOMY, percentage damage (five point scale) [10]

CC#CCn1nc(C(=O)Nc2nnnn2C)c(=O)n(-c2cccc(F)c2)c1=O [Compound 1.012]
3 (3=40-59%): PRE Application ECHCG, percentage damage (five point scale) [5]
1 (1=0-19%): PRE Application SETFA, percentage damage (five point scale) (Setaria faberi (SETFA) [2])
4 (4=60-79%): POST Application IPOHE, percentage damage (five point scale) [4] | PRE Application ALOMY, percentage damage (five point scale) [10] | PRE Application AMARE, percentage damage (five point scale) [12]
5 (5=80-100%): POST Application ALOMY, percentage damage (five point scale) [1] | PRE Application IPOHE, percentage damage (five point scale) [3] | POST Application SOLNI, percentage damage (five point scale) (Solanum nigrum (SOLNI) [6]) | POST Application AMARE, percentage damage (five point scale) [7] | POST Application SETFA, percentage damage (five point scale) (Setaria faberi (SETFA) [8]) | PRE Application SOLNI, percentage damage (five point scale) (Solanum nigrum (SOLNI) [9]) | POST Application ECHCG, percentage damage (five point scale) [11]

CC(C)CCn1nc(C(=O)Nc2nnnn2C)c(=O)n(-c2cccc(F)c2)c1=O [Compound 1.013]
3 (3=40-59%): POST Application SETFA, percentage damage (five point scale) (Setaria faberi (SETFA) [8]) | PRE Application SOLNI, percentage damage (five point scale) (Solanum nigrum (SOLNI) [9])
1 (1=0-19%): PRE Application SETFA, percentage damage (five point scale) (Setaria faberi (SETFA) [2]) | PRE Application ECHCG, percentage damage (five point scale) [5] | PRE Application ALOMY, percentage damage (five point scale) [10] | POST Application ECHCG, percentage damage (five point scale) [11]
5 (5=80-100%): POST Application ALOMY, percentage damage (five point scale) [1] | POST Application SOLNI, percentage damage (five point scale) (Solanum nigrum (SOLNI) [6])
2 (2=20-39%): PRE Application IPOHE, percentage damage (five point scale) [3] | POST Application AMARE, percentage damage (five point scale) [7] | PRE Application AMARE, percentage damage (five point scale) [12]
4 (4=60-79%): POST Application IPOHE, percentage damage (five point scale) [4]

C=CCn1nc(C(=O)Nc2nnnn2C)c(=O)n(Cc2cccc(F)c2)c1=O [Compound 1.014]
4 (4=60-79%): POST Application ECHCG, percentage damage (five point scale) [11]
3 (3=40-59%): PRE Application ALOMY, percentage damage (five point scale) [10]
5 (5=80-100%): PRE Application IPOHE, percentage damage (five point scale) [3] | POST Application IPOHE, percentage damage (five point scale) [4] | PRE Application ECHCG, percentage damage (five point scale) [5] | POST Application SOLNI, percentage damage (five point scale) (Solanum nigrum (SOLNI) [6]) | POST Application AMARE, percentage damage (five point scale) [7] | POST Application SETFA, percentage damage (five point scale) (Setaria faberi (SETFA) [8]) | PRE Application SOLNI, percentage damage (five point scale) (Solanum nigrum (SOLNI) [9]) | PRE Application AMARE, percentage damage (five point scale) [12]
2 (2=20-39%): POST Application ALOMY, percentage damage (five point scale) [1]
1 (1=0-19%): PRE Application SETFA, percentage damage (five point scale) (Setaria faberi (SETFA) [2])

Cn1nnnc1NC(=O)c1nn(C)c(=O)n(-c2ccc(F)cc2)c1=O [Compound 1.015]
5 (5=80-100%): POST Application ALOMY, percentage damage (five point scale) [1] | PRE Application SETFA, percentage damage (five point scale) (Setaria faberi (SETFA) [2]) | PRE Application IPOHE, percentage damage (five point scale) [3] | POST Application IPOHE, percentage damage (five point scale) [4] | PRE Application ECHCG, percentage damage (five point scale) [5] | POST Application SOLNI, percentage damage (five point scale) (Solanum nigrum (SOLNI) [6]) | POST Application AMARE, percentage damage (five point scale) [7] | POST Application SETFA, percentage damage (five point scale) (Setaria faberi (SETFA) [8]) | PRE Application SOLNI, percentage damage (five point scale) (Solanum nigrum (SOLNI) [9]) | PRE Application ALOMY, percentage damage (five point scale) [10] | POST Application ECHCG, percentage damage (five point scale) [11] | PRE Application AMARE, percentage damage (five point scale) [12]

Cc1ccc(Cl)cc1-n1c(=O)c(C(=O)Nc2nnnn2C)nn(C)c1=O [Compound 1.016]
5 (5=80-100%): POST Application ALOMY, percentage damage (five point scale) [1] | PRE Application SETFA, percentage damage (five point scale) (Setaria faberi (SETFA) [2]) | PRE Application IPOHE, percentage damage (five point scale) [3] | POST Application IPOHE, percentage damage (five point scale) [4] | PRE Application ECHCG, percentage damage (five point scale) [5] | POST Application SOLNI, percentage damage (five point scale) (Solanum nigrum (SOLNI) [6]) | POST Application AMARE, percentage damage (five point scale) [7] | POST Application SETFA, percentage damage (five point scale) (Setaria faberi (SETFA) [8]) | PRE Application SOLNI, percentage damage (five point scale) (Solanum nigrum (SOLNI) [9]) | PRE Application ALOMY, percentage damage (five point scale) [10] | POST Application ECHCG, percentage damage (five point scale) [11] | PRE Application AMARE, percentage damage (five point scale) [12]

Cn1nnnc1NC(=O)c1nn(C)c(=O)n(-c2cccc(F)c2)c1=O [Compound 1.017]
5 (5=80-100%): POST Application ALOMY, percentage damage (five point scale) [1] | PRE Application SETFA, percentage damage (five point scale) (Setaria faberi (SETFA) [2]) | PRE Application IPOHE, percentage damage (five point scale) [3] | POST Application IPOHE, percentage damage (five point scale) [4] | PRE Application ECHCG, percentage damage (five point scale) [5] | POST Application SOLNI, percentage damage (five point scale) (Solanum nigrum (SOLNI) [6]) | POST Application AMARE, percentage damage (five point scale) [7] | POST Application SETFA, percentage damage (five point scale) (Setaria faberi (SETFA) [8]) | PRE Application SOLNI, percentage damage (five point scale) (Solanum nigrum (SOLNI) [9]) | PRE Application ALOMY, percentage damage (five point scale) [10] | POST Application ECHCG, percentage damage (five point scale) [11] | PRE Application AMARE, percentage damage (five point scale) [12]

Cc1ccccc1-n1c(=O)c(C(=O)Nc2nnnn2C)nn(C)c1=O [Compound 1.018]
5 (5=80-100%): POST Application ALOMY, percentage damage (five point scale) [1] | PRE Application SETFA, percentage damage (five point scale) (Setaria faberi (SETFA) [2]) | PRE Application IPOHE, percentage damage (five point scale) [3] | POST Application IPOHE, percentage damage (five point scale) [4] | PRE Application ECHCG, percentage damage (five point scale) [5] | POST Application SOLNI, percentage damage (five point scale) (Solanum nigrum (SOLNI) [6]) | POST Application AMARE, percentage damage (five point scale) [7] | POST Application SETFA, percentage damage (five point scale) (Setaria faberi (SETFA) [8]) | PRE Application SOLNI, percentage damage (five point scale) (Solanum nigrum (SOLNI) [9]) | PRE Application ALOMY, percentage damage (five point scale) [10] | POST Application ECHCG, percentage damage (five point scale) [11] | PRE Application AMARE, percentage damage (five point scale) [12]

Cn1nnnc1NC(=O)c1nn(C)c(=O)n(-c2cccc(Cl)c2)c1=O [Compound 1.019]
5 (5=80-100%): POST Application ALOMY, percentage damage (five point scale) [1] | PRE Application SETFA, percentage damage (five point scale) (Setaria faberi (SETFA) [2]) | PRE Application IPOHE, percentage damage (five point scale) [3] | POST Application IPOHE, percentage damage (five point scale) [4] | PRE Application ECHCG, percentage damage (five point scale) [5] | POST Application SOLNI, percentage damage (five point scale) (Solanum nigrum (SOLNI) [6]) | POST Application AMARE, percentage damage (five point scale) [7] | POST Application SETFA, percentage damage (five point scale) (Setaria faberi (SETFA) [8]) | PRE Application SOLNI, percentage damage (five point scale) (Solanum nigrum (SOLNI) [9]) | PRE Application ALOMY, percentage damage (five point scale) [10] | POST Application ECHCG, percentage damage (five point scale) [11] | PRE Application AMARE, percentage damage (five point scale) [12]

Cn1nnnc1NC(=O)c1nn(C)c(=O)n(-c2ccccc2F)c1=O [Compound 1.020]
5 (5=80-100%): POST Application ALOMY, percentage damage (five point scale) [1] | PRE Application SETFA, percentage damage (five point scale) (Setaria faberi (SETFA) [2]) | PRE Application IPOHE, percentage damage (five point scale) [3] | POST Application IPOHE, percentage damage (five point scale) [4] | PRE Application ECHCG, percentage damage (five point scale) [5] | POST Application SOLNI, percentage damage (five point scale) (Solanum nigrum (SOLNI) [6]) | POST Application AMARE, percentage damage (five point scale) [7] | POST Application SETFA, percentage damage (five point scale) (Setaria faberi (SETFA) [8]) | PRE Application SOLNI, percentage damage (five point scale) (Solanum nigrum (SOLNI) [9]) | PRE Application ALOMY, percentage damage (five point scale) [10] | POST Application ECHCG, percentage damage (five point scale) [11] | PRE Application AMARE, percentage damage (five point scale) [12]
